Patent US20140194559A1, “Novel Inhibitor Compositions and Methods of Use” (NuFarm UK Limited, priority 2011, published 2014)

Key:
[1] = Solubility of antipolymerants in ethylbenzene; type: physicochemical; details: solvent ethylbenzene
Excerpt: (§1) In order to highlight the increased antipolymerant content that can be achieved, the solubility of three antipolymerants in ethylbenzene, a widely used solvent for supplying antipolymerants for styrene monomer production, is compared with concentration when the antipolymerant is supplied as a SC. The comparative data for the antipolymerants are set out in Table 1.
Thus, it is clear that, for all three active components, the concentration achieved in the SC is far greater than that observed in ethylbenzene. The same concentration could also be obtained when two of the active components were combined in the SC. By contrast, combining more than one of the actives in ethylbenzene, the total concentration of actives was reduced. Thus, for a combination of 2,5-di-tert-butyl-p-benzoquinone and dibenzylhydroxylamine, the total concentration in ethylbenzene was <10 w/w %.

[2] = hazard classification; cited from earlier work
[3] = Maximum concentration of actives in suspension concentrate (SC); type: physicochemical; details: for Concentration in SC: maximum concentration of active in suspension concentrate
Protocol: To the liquid carrier (approximately 80% of the required amount) is added the required quantity of the dispersing agent and the mixture is stirred until a fully homogeneous solution is formed. Under high shear conditions, the desired amount of active inhibitor component is added to the dispersant solution and the formulation is stirred until it becomes completely homogeneous. The resulting dispersed active inhibitor is transferred to a bead mill where it is continuously milled until the required particle size distribution is obtained. Desirably, the particle size is less than 10 microns. Under additional stirring, the remaining liquid carrier, optionally a preservative agent and optionally a thickening agent are added to the milled formulation until a homogeneous suspension concentrate is formed. The required quantities of the components of the formulation are in each case determined with reference to the scale of the process which is being conducted.
as §1
(§2) This effect is further illustrated by reference to a further example wherein a stable suspension concentrate of phenothiazine (PTZ), containing 40 percent by weight of the PTZ component, was easily obtained using the above methodology. PTZ is a widely used inhibitor in (meth)acrylic acid and ester processes, but has low solubility in most solvents that are compatible with such processes. In most industrial cases, PTZ is supplied in its solid form and dissolved in the monomer to form a dilute solution for dosing into the monomer purification process. Thus, for example, in laboratory tests, PTZ had the following solubilities: acrylic acid (2.6 w/w %), methacrylic acid (2.4 w/w %), n-butyl acrylate (9.7 w/w %), methyl methacrylate (8.4 w/w %).

[4] = Batch tests: polymer content in refluxing styrene monomer; details: for Effect: batch test, styrene, 120° C., inhibitor or retarder
Protocol: The particular ethylenically unsaturated compound used in the tests was a vinyl aromatic monomer, specifically styrene monomer. The use of a vinyl aromatic monomer for this purpose is illustrative and is not intended to exclude other ethylenically unsaturated compounds from the scope of this invention.
Batch tests (the results of which are detailed in Table 2), and continuous flow tests were carried out in order to represent different types of processing conditions which can occur in the industrial processing of ethylenically unsaturated compounds. These tests compare the compositions of the present invention with compositions of the prior art.
The batch test was designed in order to show whether a test composition is an inhibitor or a retarder. The tests were carried out in styrene monomer refluxing under reduced pressure at 120° C. in order to reduce the presence of atmospheric oxygen to such low levels as can be expected in a commercial styrene monomer purification plant.
For the batch tests the vinyl aromatic monomer composition containing the test substances was heated to 120° C. and stirred under reduced pressure so that it refluxed at the test temperature. Samples were taken at intervals of time and tested for polymer content in order to assess the effectiveness of polymerisation control.

[5] = Acrylic acid tube test (inhibition period); details: 25 ppm inhibitor, lean air (5% oxygen in nitrogen), 120° C., until first white precipitate
Protocol: In a typical test, a series of tubes containing acrylic acid and inhibitor was sparged with a lean air mixture (5% oxygen in nitrogen). These tubes were then heated at 120° C. until the first signs of polymerisation were detected (by means of the formation of white precipitate), and this was determined as the inhibition period.

[6] = Laboratory solubility tests of PTZ in monomers; type: physicochemical
Excerpt: as §2

SMILES | Solubility in ethylbenzene [1] | Dermal Toxicity [2] | Oral Toxicity [2] | Toxic by Inhalation [2] | Concentration in SC [3] | other results
CC(C)(C)C1=CC(=O)C(C(C)(C)C)=CC1=O [BQ, 2,5-di-tert-butyl-p-benzoquinone] | 11.9 w/w % | No | No | No | 45.0 w/w % | –
ON(Cc1ccccc1)Cc1ccccc1 [DBHA, N,N-dibenzyl hydroxylamine] | 1.6 w/w % | No | No | No | 45.0 w/w % | –
CCC(C)c1cc([N+](=O)[O-])cc([N+](=O)[O-])c1O (stereo not shown) [DNBP, 4,6-Dinitro-2-sec-butyl phenol] | – | Yes | – | – | – | Effect [4]: retarder; Effect ([4]; listed as Control 1): Retarder; Polymer (ppm) @ (time) 180 mins ([4]; styrene refluxing under reduced pressure at 120° C., 180 mins, component doses in ppm as in table): 4000 ppm
CC(C)(C)c1cc(O)c(C(C)(C)C)cc1O [HQ, 2,5-di-tert-butyl hydroquinone] | 6.7 w/w % | – | – | – | 45.0 w/w % | –
c1ccc2c(c1)Nc1ccccc1S2 [PTZ, phenothiazine] | – | – | – | – | – | Inhibition Period [5]: 531 min; solubility in acrylic acid ([6]; acrylic acid): 2.6 w/w %; solubility in methacrylic acid ([6]; methacrylic acid): 2.4 w/w %; solubility in methyl methacrylate ([6]; methyl methacrylate): 8.4 w/w %; solubility in n-butyl acrylate ([6]; n-butyl acrylate): 9.7 w/w %; PTZ content of stable suspension concentrate ([3]; stable suspension concentrate): 40 percent by weight
